Twelve compounds from patent US8399462B2, “JNK modulators” (Roche Palo Alto LLC, priority 2006, dated 2013) can be followed below.

What is called melting point is the temperature of the solid-liquid transition. As to `CS(=O)(=O)CCCOc1cccc2c(-c3ccnc(N[C@H]4CC[C@H](NS(C)(=O)=O)CC4)n3)noc12` [Compound 306, N-(4-{4-[7-(3-methane-sulfonyl-propoxy)-benzo[d]isoxazol-3-yl]-pyrimidin-2-ylamino}-cyclohexyl)-methane-sulfonamide], the melting point lay in the range of 225 to 226 °C.

`O=C([C@H]1CC[C@H](Nc2nccc(-n3ccc4c(C5(O)CCS(=O)(=O)CC5)cccc43)n2)CC1)N1CCC(O)CC1` [Compound 231, (4-{4-[4-(4-hydroxy-1,1-dioxo-hexahydro-thiopyran-4-yl)-indol-1-yl]-pyrimidin-2-yl-amino}-cyclohexyl)-(4-hydroxy-piperidin-1-yl)-methanone] showed a melting point of 271 to 272 °C.

In the case of `CC(C#N)c1cccc2c1ccn2-c1ccnc(N[C@H]2CC[C@H](N(C)S(C)(=O)=O)CC2)n1` (stereo partly drawn) [Compound 174, N-(4-{4-[4-(1-cyano-ethyl)-indol-1-yl]-pyrimidin-2-ylamino}-cyclohexyl)-N-methyl-methanesulfonamide], the melting point lay within 196 to 197 °C.

As for `CC(C)(O)[C@H]1CC[C@H](Nc2nccc(-n3cc(C(N)=O)c4ccccc43)n2)CC1` [Compound 277, 1-{2-[4-(2-hydroxy-prop-2-yl)-cyclohexyl-amino]-pyrimidin-4-yl}-1H-indole-3-carboxylic acid amide], the melting point lay in the range of 222 to 223 °C.

`CN(C)C1CCN(C(=O)[C@H]2CC[C@H](Nc3nccc(-n4ccc5c(OCCCC(F)(F)F)cccc54)n3)CC2)CC1` [Compound 286, (4-dimethylamino-piperidin-1-yl)-(4-{4-[4-(4,4,4-trifluorobutoxy)-indol-1-yl]-pyrimidin-2-ylamino}-cyclohexyl)-methanone]: the melting point was in the range of 179 to 180 °C.

For `COc1cccc2c(-c3ccnc(N[C@H]4CC[C@H](O)CC4)n3)n[nH]c12` [Compound 80, 4-[4-(7-methoxy-1H-indazol-3-yl)-pyrimidin-2-ylamino]-cyclo-hexanol], the melting point was 243.3 to 244.9 °C.

Compound `NS(=O)(=O)CCCOc1cccc2c1cnn2-c1ccnc(N[C@H]2CC[C@H](C(=O)N3CC[C@H](O)C3)CC2)n1` (stereo in doubt) [Compound 252, 3-(1-{2-[4-(3-hydroxy-pyrrolidine-1-carbonyl)-cyclohexylamino]-pyrimidin-4-yl}-1H-indazol-4-yloxy)-propane-1-sulfonic acid amide] yielded a melting point of 161 to 162 °C.

`C[S+]([O-])CCCOc1cccc2c1ccn2-c1ccnc(N[C@H]2CC[C@H](C(C)(C)O)CC2)n1` (stereo partly drawn) [Compound 211, 2-(4-{4-[4-(3-methane-sulfinyl-propoxy)-indol-1-yl]-pyrimidin-2-ylamino}-cyclohexyl)-propan-2-ol] showed a melting point of 190.5 to 191 °C.

As for `COC[C@@H]1CCCN1C(=O)[C@H]1CC[C@H](Nc2nccc(-n3ccc4c(OCCCS(C)(=O)=O)cccc43)n2)CC1` (stereo in doubt) [Compound 266, (4-{4-[4-(3-methane-sulfonyl-propoxy)-indol-1-yl]-pyrimidin-2-ylamino}-cyclohexyl)-(2-methoxymethyl-pyrrolidin-1-yl)-methanone], the melting point was in the range of 92 to 93 °C.

As to `CN([C@H]1CC[C@H](Nc2nccc(-n3ncc4c(OCCCO)cccc43)n2)CC1)S(C)(=O)=O` [Compound 178, N-(4-{4-[4-(3-hydroxy-propoxy)indazole-1-yl]-pyrmidin-2-ylamino}-cyclohexyl)-N-methyl-methanesulfonamide], the melting point was in the range of 208.4 to 209 °C.

Compound `CC(=O)N[C@H]1CC[C@H](Nc2nccc(-n3ccc4c(C(C)(C)C#N)cccc43)n2)CC1` [Compound 176, N-(4-{4-[4-(2-cyano-prop-2-yl)-indol-1-yl]-pyrimidin-2-ylamino}-cyclohexyl)-acetamide] registered a melting point of 238 to 239 °C.

On to `CS(=O)(=O)N[C@H]1CC[C@H](Nc2ncc(Cl)c(-n3ccc4ccccc43)n2)CC1` [Compound 118, N-[4-(5-chloro-4-indol-1-ylpyrimidin-2-yl-amino)-cyclohexyl]-methanesulfonamide], for which the melting point is 203.8 to 204.9 °C.
